Literature values as cited in patent publication US20010026813A1, “Extract from scutellariae radix having neuroprotective effects and pharmaceutical preparations containing the same” (priority 2000, published 2001).
Read-outs that look alike come from different tables or passages of the source.

Tested on: 4-VO models

SMILES: O=[N+]([O-])c1cccc2c(Br)n[nH]c12 [3-bromo-7-nitroindazole]
- defensive level (dose not given): 20%

SMILES: O=[N+]([O-])c1cccc2cn[nH]c12 [Example 7-NI]
- defensive level (dose not given): 17.5%

SMILES: CC1=NN=C(c2ccc(N)cc2)c2cc3c(cc2C1)OCO3 [GYK152466]
- defensive level (dose not given): 11%

SMILES: COC(=O)[C@@H](N)CCCNC(=N)N[N+](=O)[O-] [L-NAME]
- defensive level (dose not given): 23%

SMILES: CCNCc1cc(C(C)(C)C)c(O)c(C(C)(C)C)c1 [LY231617]
- defensive level (dose not given): 25-30%

SMILES: CNC(=O)N1N=C(c2ccc(N)cc2)c2cc3c(cc2CC1C)OCO3 (stereo not drawn) [LY300168]
- defensive level (dose not given): 23%

SMILES: C[C@]12N[C@H](Cc3ccccc31)c1ccccc12 [MK-801]
- defensive level (2 mg/kg, i.p.): 24%

SMILES: NS(=O)(=O)c1cccc2c1c([N+](=O)[O-])cc1nc(O)c(O)nc12 [NBQX]
- defensive level (30 mg/kg, i.p.): 42%

SMILES: OC(CN1CCC(Cc2ccc(F)cc2)CC1)c1ccc(Cl)cc1 (stereo not drawn) [eliprodil]
- defensive level (20 mg/kg, i.p.): 25%
